Assay results from ChEMBL document CHEMBL3868615, “Decahydrobenzoquinolin-5-one sigma receptor ligands: Divergent development of both sigma 1 and sigma 2 receptor selective examples” (Bioorg Med Chem Lett, 2016).

What was measured:
[1] = biological target: Delta-type opioid receptor (Homo sapiens, UniProt P41143); assay: Displacement of [3H]DADLE from human DOR expressed in HEK cells measured after 90 mins by microbeta scintillation counting method; format: cell-based, HEK293
Mu-type opioid receptor = Mu-type opioid receptor (Homo sapiens, UniProt P35372); assay: Displacement of [3H]DAMGO from human MOR expressed in HEK cells after 90 mins by microbeta scintillation counting method; format: cell-based, HEK293
Chain of Mu-type opioid receptor (P35372 whole entry): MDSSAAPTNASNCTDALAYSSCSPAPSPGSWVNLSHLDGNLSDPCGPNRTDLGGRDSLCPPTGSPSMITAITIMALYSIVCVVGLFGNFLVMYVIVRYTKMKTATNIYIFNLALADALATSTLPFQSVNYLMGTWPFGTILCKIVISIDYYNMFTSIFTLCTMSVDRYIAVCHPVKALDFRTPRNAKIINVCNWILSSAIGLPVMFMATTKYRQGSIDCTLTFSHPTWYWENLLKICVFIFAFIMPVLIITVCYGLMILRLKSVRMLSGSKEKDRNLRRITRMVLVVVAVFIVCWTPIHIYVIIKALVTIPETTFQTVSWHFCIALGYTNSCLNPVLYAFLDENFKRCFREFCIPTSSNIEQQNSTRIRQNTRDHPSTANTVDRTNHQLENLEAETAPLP

[2] = biological target: Kappa-type opioid receptor (Homo sapiens, UniProt P41145); assay: Displacement of [3H]U69593 from KOR (unknown origin) expressed in HEKT cells measured after 90 mins by microbeta scintillation counting method; format: cell-based
Chain of Kappa-type opioid receptor (P41145 whole entry): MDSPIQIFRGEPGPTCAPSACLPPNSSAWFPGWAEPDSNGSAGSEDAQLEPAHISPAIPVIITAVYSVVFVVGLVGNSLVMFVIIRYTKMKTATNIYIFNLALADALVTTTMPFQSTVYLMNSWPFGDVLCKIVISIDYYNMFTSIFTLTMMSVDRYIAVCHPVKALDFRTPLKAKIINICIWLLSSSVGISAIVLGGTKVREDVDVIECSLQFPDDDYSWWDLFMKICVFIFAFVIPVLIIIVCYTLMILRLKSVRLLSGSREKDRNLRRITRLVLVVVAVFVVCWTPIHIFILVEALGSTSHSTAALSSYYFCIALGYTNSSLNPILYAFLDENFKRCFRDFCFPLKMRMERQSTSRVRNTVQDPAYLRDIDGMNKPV

[3] = biological target: Sigma non-opioid intracellular receptor 1 (Cavia porcellus, UniProt Q60492); assay: Displacement of [3H]pentazocine from guinea pig sigma1 receptor measured after 90 mins by microbeta scintillation counting method
Chain of Sigma non-opioid intracellular receptor 1 (Q60492 whole entry): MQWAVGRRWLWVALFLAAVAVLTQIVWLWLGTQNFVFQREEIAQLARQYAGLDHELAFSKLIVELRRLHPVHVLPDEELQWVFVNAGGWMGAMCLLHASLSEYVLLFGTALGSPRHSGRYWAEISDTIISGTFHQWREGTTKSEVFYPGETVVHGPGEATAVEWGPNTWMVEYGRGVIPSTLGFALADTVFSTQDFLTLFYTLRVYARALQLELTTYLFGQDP

[4] = Displacement of [3H]DTG from sigma2 receptor in rat PC12 cells measured after 90 mins by microbeta scintillation counting method; format: cell-based; conditions: pc-12
PC-12 [5] = assay: Selectivity ratio of Ki for sigma2 receptor in rat PC12 cells to Ki for guinea pig sigma1 receptor; format: cell-based
[6] = biological target: T1, 5-hydroxytryptamine receptor 1A (Homo sapiens, UniProt P08908); assay: Displacement of [3H]Way100635 from human 5-HT1A receptor expressed in CHO cells measured after 90 mins by microbeta scintillation counting method; format: cell-based
T1 sequence (P08908 whole entry): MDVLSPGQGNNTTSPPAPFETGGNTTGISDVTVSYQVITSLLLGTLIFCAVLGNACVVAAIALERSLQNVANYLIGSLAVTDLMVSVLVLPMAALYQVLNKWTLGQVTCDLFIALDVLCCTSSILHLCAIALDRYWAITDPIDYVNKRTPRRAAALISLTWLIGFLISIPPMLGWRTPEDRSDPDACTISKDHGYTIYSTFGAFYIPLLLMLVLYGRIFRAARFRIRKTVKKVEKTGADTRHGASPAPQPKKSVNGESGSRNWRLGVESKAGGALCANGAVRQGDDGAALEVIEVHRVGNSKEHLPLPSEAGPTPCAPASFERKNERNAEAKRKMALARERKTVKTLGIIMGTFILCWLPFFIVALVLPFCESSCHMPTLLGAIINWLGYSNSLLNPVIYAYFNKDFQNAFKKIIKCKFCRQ

PC-12 [7] = assay: Selectivity ratio of Ki for guinea pig sigma1 receptor to Ki for sigma2 receptor in rat PC12 cells; format: cell-based

Chain of Delta-type opioid receptor (P41143 whole entry): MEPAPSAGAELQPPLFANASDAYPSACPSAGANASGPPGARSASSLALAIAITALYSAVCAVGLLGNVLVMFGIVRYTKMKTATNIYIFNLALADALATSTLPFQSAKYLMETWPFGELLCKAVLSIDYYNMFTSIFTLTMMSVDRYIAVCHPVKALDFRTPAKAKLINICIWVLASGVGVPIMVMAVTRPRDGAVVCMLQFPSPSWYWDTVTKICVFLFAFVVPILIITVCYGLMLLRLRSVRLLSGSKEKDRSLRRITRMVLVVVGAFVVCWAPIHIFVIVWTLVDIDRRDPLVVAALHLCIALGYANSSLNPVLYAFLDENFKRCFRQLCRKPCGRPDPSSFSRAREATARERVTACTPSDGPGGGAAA

CC[C@H]1C(=O)C[C@@H]2CCN(CCC(C)C)[C@@H]3CCC[C@H]1[C@@H]23
Ki [1]: > 10000 nM
Ki (Mu-type opioid receptor): > 10000 nM
Ki [2]: 1280 nM
Ki [3]: 4 nM
Ki [4]: 6 nM
Ratio Ki (PC-12 [5]): 1.5

CC[C@H]1C(=O)C[C@@H]2CCN(CCOC)[C@@H]3CCC[C@H]1[C@@H]23
Ki [1]: > 10000 nM
Ki (Mu-type opioid receptor): > 10000 nM
Ki [2]: > 10000 nM
Ki [3]: 26 nM
Ki [4]: 423 nM
Ratio Ki (PC-12 [5]): 16.3

CC[C@H]1C(=O)C[C@@H]2CCN(Cc3cccs3)[C@@H]3CCC[C@H]1[C@@H]23
Ki [1]: > 10000 nM
Ki (Mu-type opioid receptor): 892 nM
Ki [2]: 1470 nM
Ki [3]: 6 nM
Ki [4]: 187 nM
Ratio Ki (PC-12 [5]): 31.2

COCCN1CC[C@H]2CC(=O)[C@H](Cc3ccccc3)[C@H]3CCC[C@@H]1[C@H]23
Ki [1]: > 10000 nM
Ki (Mu-type opioid receptor): > 10000 nM
Ki [2]: > 10000 nM
Ki [3]: 2 nM
Ki [4]: 35 nM
Ratio Ki (PC-12 [5]): 17.5

CCCN1CC[C@H]2CC(=O)[C@H](CC)[C@H]3CCC[C@@H]1[C@H]23
Ki [1]: > 10000 nM
Ki (Mu-type opioid receptor): > 10000 nM
Ki [2]: > 10000 nM
Ki [3]: 11 to 12 nM
Ki [4]: 230 to 401 nM
Ratio Ki (PC-12 [5]): 20.9
Ki [6]: 4500 nM

O=C1C[C@@H]2CCN(Cc3nccs3)[C@@H]3CCC[C@@H]([C@@H]23)[C@H]1Cc1ccccc1
Ki [1]: > 10000 nM
Ki (Mu-type opioid receptor): > 10000 nM
Ki [2]: 1400 nM
Ki [3]: 3 nM
Ki [4]: 270 nM
Ratio Ki (PC-12 [5]): 90

CC[C@H]1C(=O)C[C@@H]2CCN(Cc3nccs3)[C@@H]3CCC[C@H]1[C@@H]23
Ki [1]: > 10000 nM
Ki (Mu-type opioid receptor): > 10000 nM
Ki [2]: > 10000 nM
Ki [3]: 407 nM
Ki [4]: 760 nM
Ratio Ki (PC-12 [5]): 1.9

O=C(CCCN1CCC(O)(c2ccc(Cl)cc2)CC1)c1ccc(F)cc1 [HALOPERIDOL]
Ki [4]: 14 nM

CC[C@H]1C(=O)C[C@@H]2CCN(C)[C@@H]3CCC[C@H]1[C@@H]23
Ki [1]: > 10000 nM
Ki (Mu-type opioid receptor): > 10000 nM
Ki [2]: > 10000 nM
Ki [3]: 137 nM
Ki [4]: > 5930 nM
Ratio Ki (PC-12 [5]): > 43.3

CCCN1CC[C@H]2C[C@@H](O)[C@H](CC)[C@H]3CCC[C@@H]1[C@H]23
Ki [1]: > 10000 nM
Ki (Mu-type opioid receptor): > 10000 nM
Ki [2]: > 10000 nM
Ki [3]: 55 nM
Ki [4]: 183 nM
Ratio Ki (PC-12 [5]): 3.3

CCCN1CC[C@H]2CC(=O)C[C@H]3CCC[C@@H]1[C@@H]32
Ki [1]: > 10000 nM
Ki (Mu-type opioid receptor): > 10000 nM
Ki [2]: > 10000 nM
Ki [3]: 126 nM
Ki [4]: 127 nM
Ratio Ki (PC-12 [5]): 1

CC[C@H]1c2nc3ccccc3cc2[C@@H]2CCN(C)[C@@H]3CCC[C@H]1[C@H]32
Ki [1]: > 10000 nM
Ki (Mu-type opioid receptor): > 10000 nM
Ki [2]: 3490 nM
Ki [3]: 189 nM
Ki [4]: 86 nM
Ratio Ki (PC-12 [5]): 0.5
Ratio Ki (PC-12 [7]): 2.2

CCCCCCCN1CC[C@H]2CC(=O)[C@H](CC)[C@H]3CCC[C@@H]1[C@H]23
Ki [1]: > 10000 nM
Ki (Mu-type opioid receptor): 632 nM
Ki [2]: > 10000 nM
Ki [3]: 2 nM
Ki [4]: 8 nM
Ratio Ki (PC-12 [5]): 4

CC(C)CCN1CC[C@H]2CC(=O)[C@H](Cc3ccccc3)[C@H]3CCC[C@@H]1[C@H]23
Ki [1]: > 10000 nM
Ki (Mu-type opioid receptor): > 10000 nM
Ki [2]: 711 nM
Ki [3]: 2 nM
Ki [4]: 3 nM
Ratio Ki (PC-12 [5]): 1.5

CCCN1CC[C@@H]2CC(=O)C[C@H]3CCC[C@H]1[C@H]32
Ki [1]: > 10000 nM
Ki (Mu-type opioid receptor): > 10000 nM
Ki [2]: > 10000 nM
Ki [3]: 345 nM
Ki [4]: 663 nM
Ratio Ki (PC-12 [5]): 1.9

COc1ccc(C[C@H]2C(=O)C[C@@H]3CCN(CCC(C)C)[C@@H]4CCC[C@H]2[C@@H]34)cc1
Ki [1]: > 10000 nM
Ki (Mu-type opioid receptor): > 10000 nM
Ki [2]: > 10000 nM
Ki [3]: 3 nM
Ki [4]: 6 nM
Ratio Ki (PC-12 [5]): 2

CCCN1CC[C@H]2c3cc4cccc(OC)c4nc3[C@H](CC)[C@H]3CCC[C@@H]1[C@@H]32
Ki [1]: > 10000 nM
Ki (Mu-type opioid receptor): > 10000 nM
Ki [2]: 1690 nM
Ki [3]: 171 nM
Ki [4]: 63 nM
Ratio Ki (PC-12 [5]): 0.4
Ratio Ki (PC-12 [7]): 2.7

CCCN1CC[C@H]2c3cc4cc(Cl)ccc4nc3[C@H](CC)[C@H]3CCC[C@@H]1[C@@H]32
Ki [1]: > 10000 nM
Ki (Mu-type opioid receptor): > 10000 nM
Ki [2]: 372 nM
Ki [3]: 209 nM
Ki [4]: 17 nM
Ratio Ki (PC-12 [5]): 0.08
Ratio Ki (PC-12 [7]): 12.3

O=C1C[C@@H]2CCN(Cc3cccs3)[C@@H]3CCC[C@@H]([C@@H]23)[C@H]1Cc1ccccc1
Ki [1]: > 10000 nM
Ki (Mu-type opioid receptor): > 10000 nM
Ki [2]: 638 nM
Ki [3]: 3 nM
Ki [4]: 44 nM
Ratio Ki (PC-12 [5]): 14.7

CCCN1CC[C@H]2c3cc4ccccc4nc3[C@H](CC)[C@H]3CCC[C@@H]1[C@@H]32
Ki [1]: > 10000 nM
Ki (Mu-type opioid receptor): > 10000 nM
Ki [2]: 493 nM
Ki [3]: 70 nM
Ki [4]: 27 nM
Ratio Ki (PC-12 [5]): 0.4
Ratio Ki (PC-12 [7]): 2.6

CC[C@H]1C(=O)C[C@@H]2CCN(CC3CCCCC3)[C@@H]3CCC[C@H]1[C@@H]23
Ki [1]: > 10000 nM
Ki (Mu-type opioid receptor): 1900 nM
Ki [2]: 278 nM
Ki [3]: 4 nM
Ki [4]: 3 nM
Ratio Ki (PC-12 [5]): 0.8

CCCN1CC[C@H]2CC(=O)[C@H](Cc3ccc(OC)cc3)[C@H]3CCC[C@@H]1[C@H]23
Ki [1]: > 10000 nM
Ki (Mu-type opioid receptor): > 10000 nM
Ki [2]: > 10000 nM
Ki [3]: 9 nM
Ki [4]: 29 nM
Ratio Ki (PC-12 [5]): 3.2

CCCN1CC[C@H]2CC3=Nc4ccccc4[C@]3(CC)[C@H]3CCC[C@@H]1[C@H]23
Ki [1]: > 10000 nM
Ki (Mu-type opioid receptor): > 10000 nM
Ki [2]: > 10000 nM
Ki [3]: 7 nM
Ki [4]: 76 nM
Ratio Ki (PC-12 [5]): 10.9

CC[C@H]1C(=O)C[C@@H]2CCN(S(=O)(=O)c3ccc(C)cc3)[C@@H]3CCC[C@H]1[C@@H]23
Ki [1]: > 10000 nM
Ki (Mu-type opioid receptor): > 10000 nM
Ki [2]: > 10000 nM
Ki [3]: > 10000 nM
Ki [4]: > 10000 nM

CC[C@H]1C(=O)C[C@@H]2CCN(C(=O)NCc3ccc(Cl)cc3)[C@@H]3CCC[C@H]1[C@@H]23
Ki [1]: > 10000 nM
Ki (Mu-type opioid receptor): > 10000 nM
Ki [2]: > 10000 nM
Ki [3]: 722 nM
Ki [4]: 1910 nM
Ratio Ki (PC-12 [5]): 2.6

COc1ccc(C[C@H]2C(=O)C[C@@H]3CCN(C)[C@@H]4CCC[C@H]2[C@@H]34)cc1
Ki [1]: > 10000 nM
Ki (Mu-type opioid receptor): > 10000 nM
Ki [2]: > 10000 nM
Ki [3]: 5 nM
Ki [4]: 251 nM
Ratio Ki (PC-12 [5]): 50.2

O=C1C[C@@H]2CCN(CC3CCCCC3)[C@@H]3CCC[C@@H]([C@@H]23)[C@H]1Cc1ccccc1
Ki [1]: > 10000 nM
Ki (Mu-type opioid receptor): > 10000 nM
Ki [2]: 1230 nM
Ki [3]: 3 nM
Ki [4]: 2 nM
Ratio Ki (PC-12 [5]): 0.7

CCCN1CC[C@H]2CC(=O)[C@H](Cc3ccccc3)[C@H]3CCC[C@@H]1[C@H]23
Ki [1]: > 10000 nM
Ki (Mu-type opioid receptor): > 10000 nM
Ki [2]: 3620 nM
Ki [3]: 1 nM
Ki [4]: 5 nM
Ratio Ki (PC-12 [5]): 5

COc1ccc(C[C@H]2C(=O)C[C@@H]3CCN(CC4CCCCC4)[C@@H]4CCC[C@H]2[C@@H]34)cc1
Ki [1]: > 10000 nM
Ki (Mu-type opioid receptor): > 10000 nM
Ki [2]: 1600 nM
Ki [3]: 10 nM
Ki [4]: 3 nM
Ratio Ki (PC-12 [5]): 0.3
Ratio Ki (PC-12 [7]): 3
